The series relates to CCRIS mutagenicity, Ames/micronucleus/aberration tests. The series is described as follows: CCRIS mutagenicity studies. From the text:
The CCRIS database contains chemical records with carcinogenicity, mutagenicity, tumor promotion, and tumor inhibition test results. It was developed by the National Cancer Institute (NCI). Data are derived from studies cited in primary journals, current awareness tools, NCI reports, and other sources. Test results have been reviewed by experts in carcinogenesis and mutagenesis.
CCRIS provides historical information from the years 1985 - 2011. It is no longer updated.
This is an archive assay for CCRIS mutagenicity studies.

The source made the active and inactive calls. How the calls were made is not given here.

As to `O=NN1CCCCCC1`, the mutagenic call is “active; positive” (Test System: AMES SALMONELLA TYPHIMURIUM, Strain/Indicator: TA100, Metabolic Activation: RABBIT, LIVER, S-9, Method: PREINCUBATION); “inactive; negative” (Test System: AMES SALMONELLA TYPHIMURIUM, Strain/Indicator: TA100, Metabolic Activation: RABBIT, LUNG MACROPHAGES, Method: PREINCUBATION); “inactive; negative” (Test System: AMES SALMONELLA TYPHIMURIUM, Strain/Indicator: TA100, Metabolic Activation: RABBIT, LUNG, CLARA CELLS, Method: PREINCUBATION); “inactive; negative” (Test System: AMES SALMONELLA TYPHIMURIUM, Strain/Indicator: TA100, Metabolic Activation: RABBIT, LUNG, TYPE II CELLS, Method: PREINCUBATION); “active; positive” (Test System: AMES SALMONELLA TYPHIMURIUM, Strain/Indicator: TA1530, Metabolic Activation: RABBIT, LIVER, S-9, Method: PREINCUBATION); “inactive; negative” (Test System: AMES SALMONELLA TYPHIMURIUM, Strain/Indicator: TA1530, Metabolic Activation: RABBIT, LUNG MACROPHAGES, Method: PREINCUBATION). In addition, the mutagenic call was “inactive; negative” (Test System: AMES SALMONELLA TYPHIMURIUM, Strain/Indicator: TA1530, Metabolic Activation: RABBIT, LUNG, CLARA CELLS, Method: PREINCUBATION); “inactive; negative” (Test System: AMES SALMONELLA TYPHIMURIUM, Strain/Indicator: TA1530, Metabolic Activation: RABBIT, LUNG, TYPE II CELLS, Method: PREINCUBATION); “active; positive” (Test System: UDS RABBIT LUNG CLARA CELLS, Strain/Indicator: THY INCORP, Metabolic Activation: NONE, Method: LIQUID SCINTILLATION COUNTING); “inactive; negative” (Test System: UDS RABBIT LUNG MACROPHAGES, Strain/Indicator: THY INCORP, Metabolic Activation: NONE, Method: LIQUID SCINTILLATION COUNTING); “inactive; negative” (Test System: UDS RABBIT LUNG TYPE II CELLS, Strain/Indicator: THY INCORP, Metabolic Activation: NONE, Method: LIQUID SCINTILLATION COUNTING).
Turning to `Oc1ccc2c(c1)[nH]c1ccccc12`, the mutagenic call (Test System: CHINESE HAMSTER OVARY, Strain/Indicator: CHO-K1-BH4 (HGPRT)/6-THIOGUANINE, Metabolic Activation: RAT, LIVER, S-9, AROCLOR (4%)) is “active; positive”.
Regarding `CCCC(Cl)C(=O)S` (stereo unspecified), the mutagenic call (Test System: AMES SALMONELLA TYPHIMURIUM, Strain/Indicator: TA1535, Metabolic Activation: NONE) is “active; positive”.
As to `C=COc1ccccc1`, the mutagenic call by setting is: (Test System: AMES SALMONELLA TYPHIMURIUM, Strain/Indicator: TA98, Metabolic Activation: NONE, Method: STANDARD PLATE) “inactive; negative”; (Test System: AMES SALMONELLA TYPHIMURIUM, Strain/Indicator: TA98, Metabolic Activation: RAT LIVER MICROSOMES, Method: STANDARD PLATE) “inactive; negative”; (Test System: AMES SALMONELLA TYPHIMURIUM, Strain/Indicator: TA1535, Metabolic Activation: NONE, Method: STANDARD PLATE) “inactive; negative”; (Test System: AMES SALMONELLA TYPHIMURIUM, Strain/Indicator: TA1535, Metabolic Activation: RAT LIVER MICROSOMES, Method: STANDARD PLATE) “active; positive”.
Regarding `Cc1cc2ccc3cc4ccccc4c4ccc(c1)c2c34`, the mutagenic call (Test System: AMES SALMONELLA TYPHIMURIUM, Strain/Indicator: TA100, Metabolic Activation: RAT, INTACT HEPATOCYTES, AROCLOR 1254, Method: PREINCUBATION) is “active; positive” and the mutagenic call (Test System: AMES SALMONELLA TYPHIMURIUM, Strain/Indicator: TA100, Metabolic Activation: RAT, NADPH-FORTIFIED HOMOGENIZED HEPATOCYTES, AROCLOR 1254, Method: PREINCUBATION) is “active; positive”.
As to `CC(=NC#N)N(C)Cc1ccc(Cl)nc1`, the mutagenic call was “active; positive (structural changes), 20% purity (commercial product mosetam 20 sp)” (End Point: In vitro chromosomal aberrations, Test System: Human peripheral lymphocytes, Metabolic Activation: None); “active; positive, 20% purity (commercial product mosetam 20 sp)” (End Point: In vitro micronucleus, Test System: Human peripheral lymphocytes, Metabolic Activation: None); “inactive; negative” (End Point: In vivo micronucleus, Test System: Bone marrow polychromatic erythrocytes, Species: Mouse, Strain/Sex: CD-1/Female, Route: Gavage); “inactive; negative” (End Point: In vivo micronucleus, Test System: Bone marrow polychromatic erythrocytes, Species: Mouse, Strain/Sex: CD-1/Male, Route: Gavage); “inactive; negative” (Test System: Ames Salmonella typhimurium, Strain/Indicator: TA98, Metabolic Activation: None, Method: Preincubation); “inactive; negative” (Test System: Ames Salmonella typhimurium, Strain/Indicator: TA98, Metabolic Activation: Rodent, Liver, S-9, Method: Preincubation). The mutagenic call by setting is: (Test System: Ames Salmonella typhimurium, Strain/Indicator: TA100, Metabolic Activation: None, Method: Preincubation) “inactive; negative”; (Test System: Ames Salmonella typhimurium, Strain/Indicator: TA100, Metabolic Activation: Rodent, Liver, S-9, Method: Preincubation) “inactive; negative”; (Test System: Ames Salmonella typhimurium, Strain/Indicator: TA1535, Metabolic Activation: None, Method: Preincubation) “inactive; negative”; (Test System: Ames Salmonella typhimurium, Strain/Indicator: TA1535, Metabolic Activation: Rodent, Liver, S-9, Method: Preincubation) “inactive; negative”; (Test System: Ames Salmonella typhimurium, Strain/Indicator: TA1537, Metabolic Activation: None, Method: Preincubation) “inactive; negative”; (Test System: Ames Salmonella typhimurium, Strain/Indicator: TA1537, Metabolic Activation: Rodent, Liver, S-9, Method: Preincubation) “inactive; negative”. For the same compound, the mutagenic call (Test System: E. coli, Strain/Indicator: WP2 uvrA, Metabolic Activation: None, Method: Preincubation) is “inactive; negative”; the mutagenic call (Test System: E. coli, Strain/Indicator: WP2 uvrA, Metabolic Activation: Rodent, Liver, S-9, Method: Preincubation) was “inactive; negative”; the mutagenic call (Test System: UDS F344 male rat hepatocytes, Strain/Indicator: THY INCORP, Method: Autoradiography) is “inactive; negative”.
`O=Cc1c([N+](=O)[O-])cccc1[N+](=O)[O-]`: the mutagenic call reads like this: (Test System: AMES SALMONELLA TYPHIMURIUM, Strain/Indicator: TA98, Metabolic Activation: NONE, Method: PREINCUBATION) “active; positive”; (Test System: AMES SALMONELLA TYPHIMURIUM, Strain/Indicator: TA98, Metabolic Activation: RAT, LIVER, S-9, PHENOBARBITAL AND 5,6-BENZOFLAVONE, Method: PREINCUBATION) “inactive; negative”; (Test System: AMES SALMONELLA TYPHIMURIUM, Strain/Indicator: TA100(1,8-DNP6), Metabolic Activation: NONE, Method: SUSPENSION/PLATE) “active; positive”; (Test System: AMES SALMONELLA TYPHIMURIUM, Strain/Indicator: TA100(NR), Metabolic Activation: NONE, Method: SUSPENSION/PLATE) “active; positive”; (Test System: AMES SALMONELLA TYPHIMURIUM, Strain/Indicator: TA100, Metabolic Activation: NONE, Method: PREINCUBATION) “active; positive”; (Test System: AMES SALMONELLA TYPHIMURIUM, Strain/Indicator: TA100, Metabolic Activation: NONE, Method: SUSPENSION/PLATE) “active; positive”. For the same compound, the mutagenic call (Test System: AMES SALMONELLA TYPHIMURIUM, Strain/Indicator: TA100, Metabolic Activation: RAT, LIVER, S-9, PHENOBARBITAL AND 5,6-BENZOFLAVONE, Method: PREINCUBATION) was “active; positive”.
